Results from ChEMBL document CHEMBL5260810, “Inhibition of bromodomain-containing protein 9 for the prevention of epigenetically-defined drug resistance” (Bioorg Med Chem Lett, 2017).

Tests used:
[1] = system: NALM-6; assay: Cytotoxicity against human NALM-6 cells measured after 8 days; assay type: functional, cell-based; conditions: NALM-6, 192 h
[2] = system: NOMO-1; assay: Cytotoxicity against human NOMO-1 cells measured after 8 days; assay type: functional, cell-based; conditions: NOMO-1, 192 h
[3] = system: BaF3; assay: Cytotoxicity against mouse BaF3 cells measured after 8 days; assay type: functional, cell-based; conditions: BaF3, 192 h
[4] = system: MOLM-13; assay: Cytotoxicity against human MOLM-13 cells measured after 8 days; assay type: functional, cell-based; conditions: MOLM-13, 192 h
[5] = system: OCI-AML-3; assay: Cytotoxicity against human OCI-AML-3 cells measured after 8 days; assay type: functional, cell-based; conditions: OCI-AML-3, 192 h
[6] = Cytotoxicity against human NCI-H2369 cells measured after 8 days; assay type: functional, cell-based; conditions: NCI-H2369, 192 h
[7] = system: TMD8; assay: Cytotoxicity against human TMD8 cells measured after 8 days; assay type: functional, cell-based; conditions: TMD8, 192 h
[8] = system: U-266; assay: Cytotoxicity against human U266B1 cells measured after 8 days; assay type: functional, cell-based; conditions: U-266, 192 h
[9] = system: NCI-H889; assay: Cytotoxicity against human NCI-H889 cells measured after 8 days; assay type: functional, cell-based; conditions: NCI-H889, 192 h
[10] = system: NCI-H417; assay: Cytotoxicity against human NCI-H417 cells measured after 8 days; assay type: functional, cell-based; conditions: NCI-H417, 192 h
[11] = Cytotoxicity against human NCE-G 118 cells measured after 8 days; assay type: functional, cell-based; conditions: NCE-G 118, 192 h
[12] = Cytotoxicity against human NCE-G 142 cells measured after 8 days; assay type: functional, cell-based; conditions: NCE-G 142, 192 h
[13] = Cytotoxicity against human GOS-3 cells measured after 8 days; assay type: functional, cell-based; conditions: GOS-3, 192 h
[14] = Cytotoxicity against mouse FOX-NY cells measured after 8 days; assay type: functional, cell-based; conditions: 192 h
[15] = Cytotoxicity against human Ri-1 cells measured after 8 days; assay type: functional, cell-based; conditions: Ri-1, 192 h
[16] = system: SU-DHL-8; assay: Cytotoxicity against human SU-DHL-8 cells measured after 8 days; assay type: functional, cell-based; conditions: SU-DHL-8, 192 h
[17] = Cytotoxicity against human Hs 38.T cells measured after 8 days; assay type: functional, cell-based; conditions: 192 h
[18] = system: OVCAR-5; assay: Cytotoxicity against human OVCAR-5 cells measured after 8 days; assay type: functional, cell-based; conditions: OVCAR-5, 192 h
[19] = system: BXPC-3; assay: Cytotoxicity against human BXPC-3 cells measured after 8 days; assay type: functional, cell-based; conditions: BXPC-3, 192 h
[20] = system: Hs 766; assay: Cytotoxicity against human Hs 766 cells measured after 8 days; assay type: functional, cell-based; conditions: Hs 766, 192 h
[21] = system: C-33-A; assay: Cytotoxicity against human C-33-A cells measured after 8 days; assay type: functional, cell-based; conditions: 192 h
[22] = Cytotoxicity against human SKG-IIIb cells measured after 8 days; assay type: functional, cell-based; conditions: 192 h
[23] = Cytotoxicity against human KPP-1 cells measured after 8 days; assay type: functional, cell-based; conditions: KPP-1, 192 h
[24] = Cytotoxicity against human KR7414 cells measured after 8 days; assay type: functional, cell-based; conditions: KR7414, 192 h
[25] = Cytotoxicity against human PaTu 8988s cells measured after 8 days; assay type: functional, cell-based; conditions: 192 h
[26] = Cytotoxicity against human Panc 02.03 cells measured after 8 days; assay type: functional, cell-based; conditions: Panc 02.03, 192 h
[27] = Cytotoxicity against human PK-1 cells measured after 8 days; assay type: functional, cell-based; conditions: PK-1, 192 h
[28] = Cytotoxicity against human PK-45H cells measured after 8 days; assay type: functional, cell-based; conditions: 192 h
[29] = Cytotoxicity against human QGP-1 cells measured after 8 days; assay type: functional, cell-based; conditions: QGP-1, 192 h
[30] = Cytotoxicity against human SUIT-2 cells measured after 8 days; assay type: functional, cell-based; conditions: SUIT-2, 192 h
[31] = Cytotoxicity against human TCC-Pan2 cells measured after 8 days; assay type: functional, cell-based; conditions: TCC-Pan2, 192 h
[32] = Cytotoxicity against mouse TRAMP-C1 cells measured after 8 days; assay type: functional, cell-based; conditions: TRAMP-C1, 192 h
[33] = system: SJRH30; assay: Cytotoxicity against human SJRH30 cells measured after 8 days; assay type: functional, cell-based; conditions: SJRH30, 192 h
[34] = Cytotoxicity against human 4498-14745 Mel-BR3 cells measured after 8 days; assay type: functional, cell-based; conditions: 4498-14745 Mel-BR3, 192 h
[35] = Cytotoxicity against human 624-mel cells measured after 8 days; assay type: functional, cell-based; conditions: Homo sapiens, 624, 192 h
[36] = system: COLO-679; assay: Cytotoxicity against human COLO-679 cells measured after 8 days; assay type: functional, cell-based; conditions: COLO-679, 192 h
[37] = system: KYSE-30; assay: Cytotoxicity against human KYSE-30 cells measured after 8 days; assay type: functional, cell-based; conditions: KYSE-30, 192 h
[38] = system: KYSE-510; assay: Cytotoxicity against human KYSE-510 cells measured after 8 days; assay type: functional, cell-based; conditions: KYSE-510, 192 h
[39] = system: KYSE-70 cell line; assay: Cytotoxicity against human KYSE-70 cell line measured after 8 days; assay type: functional, cell-based; conditions: KYSE-70, 192 h
[40] = Cytotoxicity against human OE21 cells measured after 8 days; assay type: functional, cell-based; conditions: OE21, 192 h
[41] = Cytotoxicity against human COLO 849 cells measured after 8 days; assay type: functional, cell-based; conditions: COLO 849, 192 h
[42] = Cytotoxicity against human COLO 857 cells measured after 8 days; assay type: functional, cell-based; conditions: COLO 857, 192 h
[43] = Cytotoxicity against human DEOC-1 cells measured after 8 days; assay type: functional, cell-based; conditions: DEOC-1, 192 h
[44] = system: Hs 695T; assay: Cytotoxicity against human Hs 695T cells measured after 8 days; assay type: functional, cell-based; conditions: 192 h
[45] = system: IGR-1; assay: Cytotoxicity against human IGR-1 cells measured after 8 days; assay type: functional, cell-based; conditions: IGR-1, 192 h
[46] = system: 769-P; assay: Cytotoxicity against human 769-P cells measured after 8 days; assay type: functional, cell-based; conditions: 192 h
[47] = system: ACHN; assay: Cytotoxicity against human ACHN cells measured after 8 days; assay type: functional, cell-based; conditions: 192 h
[48] = system: HepG2; assay: Cytotoxicity against human HepG2 cells measured after 8 days; assay type: functional, cell-based; conditions: HepG2, 192 h
[49] = Cytotoxicity against human IGR-39 cells measured after 8 days; assay type: functional, cell-based; conditions: IGR-39, 192 h
[50] = system: SNU-182; assay: Cytotoxicity against human SNU-182 cells measured after 8 days; assay type: functional, cell-based; conditions: SNU-182, 192 h
[51] = system: SNU-475; assay: Cytotoxicity against human SNU-475 cells measured after 8 days; assay type: functional, cell-based; conditions: SNU-475, 192 h
[52] = system: NCI-N87; assay: Cytotoxicity against human NCI-N87 cells measured after 8 days; assay type: functional, cell-based; conditions: NCI-N87, 192 h
[53] = Cytotoxicity against human SNU-601 cells measured after 8 days; assay type: functional, cell-based; conditions: SNU-601, 192 h
[54] = Cytotoxicity against human KHM-5M cells measured after 8 days; assay type: functional, cell-based; conditions: 192 h
[55] = Cytotoxicity against human COLO 685 cells measured after 8 days; assay type: functional, cell-based; conditions: COLO 685, 192 h
[56] = Cytotoxicity against human HEC-50B cells measured after 8 days; assay type: functional, cell-based; conditions: 192 h
[57] = Cytotoxicity against human NJG cells measured after 8 days; assay type: functional, cell-based; conditions: 192 h
[58] = system: SNG-M; assay: Cytotoxicity against human SNG-M cells measured after 8 days; assay type: functional, cell-based; conditions: 192 h
[59] = biological target: TGF-beta receptor type-1 (Homo sapiens) (UniProt P36897); assay: Inhibition of TGFBR1 (unknown origin) at 1 uM relative to control
Sequence of TGF-beta receptor type-1 (Homo sapiens) (P36897 whole entry): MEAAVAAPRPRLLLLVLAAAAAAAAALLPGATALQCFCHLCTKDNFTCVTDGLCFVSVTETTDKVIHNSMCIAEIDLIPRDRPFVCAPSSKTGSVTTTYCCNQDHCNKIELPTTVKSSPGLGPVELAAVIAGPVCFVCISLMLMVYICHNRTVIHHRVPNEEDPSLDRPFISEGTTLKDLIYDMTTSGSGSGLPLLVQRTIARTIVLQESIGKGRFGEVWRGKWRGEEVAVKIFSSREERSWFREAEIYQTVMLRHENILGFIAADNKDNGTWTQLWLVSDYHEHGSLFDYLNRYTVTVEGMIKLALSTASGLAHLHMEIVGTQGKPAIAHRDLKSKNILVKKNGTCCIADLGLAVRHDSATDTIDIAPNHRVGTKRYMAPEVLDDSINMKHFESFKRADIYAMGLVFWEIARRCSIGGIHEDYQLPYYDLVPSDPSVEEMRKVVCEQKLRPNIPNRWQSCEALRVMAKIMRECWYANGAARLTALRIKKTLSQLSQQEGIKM

[60] = biological target: GABA-A receptor; alpha-1/beta-2/gamma-2 (Homo sapiens) (UniProt P14867+P47870+P18507); assay: Inhibition of GABA alpha1/beta2/gamma2 (unknown origin) at 1 uM relative to control; assay type: protein-complex assay

## C/C=C/Cn1cc(-c2ccc(C(C)(C)O)cc2OC)c2cc[nH]c2c1=O
[1]
  IC50: 20 µM
[2]
  IC50: 20 µM
[3]
  IC50: 20 µM
[4]
  IC50: 6.19 µM
[5]
  IC50: 20 µM
[6]
  IC50: 20 µM
[7]
  IC50: 20 µM
[8]
  IC50: 20 µM
[9]
  IC50: 20 µM
[10]
  IC50: 20 µM
[11]
  IC50: 20 µM
[12]
  IC50: 20 µM
[13]
  IC50: 20 µM
[14]
  IC50: 20 µM
[15]
  IC50: 20 µM
[16]
  IC50: 3.26 µM
[17]
  IC50: 20 µM
[18]
  IC50: 20 µM
[19]
  IC50: 20 µM
[20]
  IC50: 20 µM
[21]
  IC50: 20 µM
[22]
  IC50: 20 µM
[23]
  IC50: 20 µM
[24]
  IC50: 20 µM
[25]
  IC50: 20 µM
[26]
  IC50: 20 µM
[27]
  IC50: 20 µM
[28]
  IC50: 20 µM
[29]
  IC50: 20 µM
[30]
  IC50: 20 µM
[31]
  IC50: 20 µM
[32]
  IC50: 20 µM
[33]
  IC50: 20 µM
[34]
  IC50: 20 µM
[35]
  IC50: 20 µM
[36]
  IC50: 20 µM
[37]
  IC50: 20 µM
[38]
  IC50: 20 µM
[39]
  IC50: 20 µM
[40]
  IC50: 20 µM
[41]
  IC50: 20 µM
[42]
  IC50: 20 µM
[43]
  IC50: 20 µM
[44]
  IC50: 20 µM
[45]
  IC50: 20 µM
[46]
  IC50: 20 µM
[47]
  IC50: 20 µM
[48]
  IC50: 20 µM
[49]
  IC50: 20 µM
[50]
  IC50: 20 µM
[51]
  IC50: 20 µM
[52]
  IC50: 20 µM
[53]
  IC50: 20 µM
[54]
  IC50: 20 µM
[55]
  IC50: 20 µM
[56]
  IC50: 20 µM
[57]
  IC50: 20 µM
[58]
  IC50: 20 µM
[59]
  inhibition: 0%
[60]
  inhibition: 4%

## C/C=C/Cn1cc(-c2ccc(C(=O)N3CCOCC3)cc2)c2cc[nH]c2c1=O
[1]
  IC50: 18.8 µM
[2]
  IC50: 20 µM
[3]
  IC50: 20 µM
[4]
  IC50: 9.33 µM
[5]
  IC50: 11.3 µM
[6]
  IC50: 20 µM
[7]
  IC50: 20 µM
[8]
  IC50: 20 µM
[9]
  IC50: 20 µM
[10]
  IC50: 20 µM
[11]
  IC50: 20 µM
[12]
  IC50: 20 µM
[13]
  IC50: 20 µM
[14]
  IC50: 11.9 µM
[15]
  IC50: 20 µM
[16]
  IC50: 12.8 µM
[17]
  IC50: 20 µM
[18]
  IC50: 20 µM
[19]
  IC50: 20 µM
[20]
  IC50: 20 µM
[21]
  IC50: 20 µM
[22]
  IC50: 20 µM
[23]
  IC50: 10.9 µM
[24]
  IC50: 20 µM
[25]
  IC50: 20 µM
[26]
  IC50: 20 µM
[27]
  IC50: 20 µM
[28]
  IC50: 20 µM
[29]
  IC50: 20 µM
[30]
  IC50: 20 µM
[31]
  IC50: 20 µM
[32]
  IC50: 19.7 µM
[33]
  IC50: 20 µM
[34]
  IC50: 20 µM
[35]
  IC50: 20 µM
[36]
  IC50: 20 µM
[37]
  IC50: 20 µM
[38]
  IC50: 20 µM
[39]
  IC50: 20 µM
[40]
  IC50: 20 µM
[41]
  IC50: 20 µM
[42]
  IC50: 20 µM
[43]
  IC50: 20 µM
[44]
  IC50: 20 µM
[45]
  IC50: 20 µM
[46]
  IC50: 20 µM
[47]
  IC50: 20 µM
[48]
  IC50: 20 µM
[49]
  IC50: 20 µM
[50]
  IC50: 20 µM
[51]
  IC50: 20 µM
[52]
  IC50: 20 µM
[53]
  IC50: 20 µM
[54]
  IC50: 20 µM
[55]
  IC50: 20 µM
[56]
  IC50: 20 µM
[57]
  IC50: 20 µM
[58]
  IC50: 20 µM
[60]
  inhibition: 8%

## C/C=C/Cn1cc(-c2cc(OC)c(C(=O)N3CCOCC3)cc2OC)c2cc(C)[nH]c2c1=O
[59]
  inhibition: -1.5%
